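How tested: cells in 96-well plates exposed to compound for 48 hours at five concentrations. GI50: concentration for 50% inhibition of growth.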 The source made the active and inactive calls. No stated cut-off is given here; in the data, active = GI50 up to about 1.1 µM and inactive = higher.
Tests used:
Test in all cases: NCI anticancer screen, dose series, 48 h
[1] = tested on: SNB-75
[2] = tested on: OVCAR-8
[3] = tested on: SW-620
[4] = tested on: CCRF-CEM
[5] = tested on: ACHN
[6] = tested on: MOLT-4
[7] = tested on: A549
[8] = tested on: LOX IMVI
[9] = tested on: SK-OV-3
[10] = tested on: CAKI-1
[11] = tested on: M14
[12] = tested on: NCI-H460
[13] = tested on: EKVX
[14] = tested on: TK-10
[15] = tested on: NCI-H226
[16] = tested on: U-251
[17] = tested on: K562
[18] = tested on: A498

Measured: GI50

COc1cc(CC2C(=O)OCC2[C@@H](OC(C)=O)c2ccc3c(c2)OCO3)c(Br)c(OC)c1OC (some centres not stated)
inactive: [1] 28.5 µM | [2] > 100 µM | [3] 58.3 µM | [4] 44.7 µM | [5] 99.8 µM | [6] 35.2 µM | [7] 39.4 µM | [8] > 100 µM | [9] > 100 µM | [10] > 100 µM | [11] 50.9 µM | [12] 48.3 µM | [13] > 100 µM | [14] > 100 µM

Cc1cc(C)c2c(c1C)CN1CN2Cc2c(C)c(C)cc(C)c21
inactive: [1] 21 µM | [2] > 100 µM | [3] > 100 µM | [4] > 100 µM | [5] > 100 µM | [6] > 100 µM | [7] 80.9 µM | [8] > 100 µM | [9] > 100 µM | [10] > 100 µM | [11] > 100 µM | [12] 48.4 µM | [15] > 100 µM | [16] 5.18 µM | [17] 8.75 µM | [13] > 100 µM | [14] > 100 µM

CCCCCCc1cc2c(C)c(C)c(=O)oc2cc1OCCCOc1cc2oc(=O)c(C)c(C)c2cc1CCCCCC
inactive: [2] > 100 µM | [3] > 100 µM | [4] > 100 µM | [6] > 100 µM | [7] > 100 µM | [8] > 100 µM | [9] > 100 µM | [10] > 100 µM | [11] > 100 µM | [12] > 100 µM | [16] > 100 µM | [17] > 100 µM | [13] > 100 µM | [14] > 100 µM | [18] > 100 µM

N/N=C(\c1nc2ccc(Cl)cc2nc1O)C(O)c1ccc(Cl)c(Cl)c1 (configuration not stated)
inactive: [1] 31 µM | [2] 72.6 µM | [3] 59.2 µM | [4] > 100 µM | [5] > 100 µM | [6] > 100 µM | [7] > 100 µM | [8] > 100 µM | [9] > 100 µM | [11] > 100 µM | [12] > 100 µM | [15] > 100 µM | [16] > 100 µM | [17] > 100 µM | [13] > 100 µM | [14] > 100 µM

C/C=C1\CN2CCc3c([nH]c4ccccc34)C2CC1C(=O)OC (configuration not stated)
inactive: [2] > 322 µM | [3] > 322 µM | [4] > 322 µM | [5] > 322 µM | [6] > 322 µM | [7] > 322 µM | [8] > 322 µM | [9] > 322 µM | [10] > 322 µM | [12] > 322 µM | [15] > 322 µM | [16] > 322 µM | [17] > 322 µM | [13] > 322 µM | [14] > 322 µM

From ChEMBL document CHEMBL1201862, “PubChem BioAssay data set” (2004)
